One cell line from the supplement of paper PMC10307832 can be followed below.

Holding throughout (assay): relative viability (nuclei count vs DMSO), 5 days (fraction); higher = more cells survive
Compound in the assay “Veliparib + Pemetrexed”: C[C@]1(c2nc3c(C(N)=O)cccc3[nH]2)CCCN1 [Veliparib] + Nc1nc2[nH]cc(CCc3ccc(C(=O)N[C@@H](CCC(=O)O)C(=O)O)cc3)c2c(=O)[nH]1 [Pemetrexed] (partner 0.2 µM)
In outline: (§1)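 The day after seeding in 1536-well plates, lung cancer cell lines were treated by pin tool with a single drug, or with a fixed anchor-drug dose together with five library-drug doses (not always all listed) in √10 steps. After 5 days, a combined fix-and-stain solution (final 0.05% Triton X-100, 1% formaldehyde, 1 ug/ml Hoechst) was added. Nuclei counted on 4× images gave relative viability as treated counts over vehicle counts, reported as the median of duplicate plates.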

Compound in assay [1]: COC1=CC=C(C=C1)CN2C=CC3=C2C=C(C=C3)C(=O)NO + CS(=O)(=O)CCNCc1ccc(-c2ccc3ncnc(Nc4ccc(OCc5cccc(F)c5)c(Cl)c4)c3c2)o1 [Lapatinib] (partner 2 µM)
Put shortly: as §1

Compound in the assay “Veliparib + Navitoclax”: C[C@]1(c2nc3c(C(N)=O)cccc3[nH]2)CCCN1 [Veliparib] + CC1(C)CCC(c2ccc(Cl)cc2)=C(CN2CCN(c3ccc(C(=O)NS(=O)(=O)c4ccc(N[C@H](CCN5CCOCC5)CSc5ccccc5)c(S(=O)(=O)C(F)(F)F)c4)cc3)CC2)C1 [Navitoclax] (partner 0.5 µM)
In outline: as §1

Compound in the assay “Veliparib + Trametinib”: C[C@]1(c2nc3c(C(N)=O)cccc3[nH]2)CCCN1 [Veliparib] + CC(=O)Nc1cccc(-n2c(=O)n(C3CC3)c(=O)c3c(Nc4ccc(I)cc4F)n(C)c(=O)c(C)c32)c1 [Trametinib] (partner 0.02 µM)
Put shortly: as §1

For the cell line SW 1573, the relative viability worked out at 0.721 with Veliparib + Pemetrexed (first compound 0.06325 µM); 0.758 in the assay with Veliparib + Pemetrexed (first compound 0.2 µM); 0.768 in the assay with Veliparib + Pemetrexed (first compound 0.6325 µM); 0.86 in the assay with Veliparib + Pemetrexed (first compound 2 µM); 1.07 in assay [1] (first compound 0.253 µM); 1.36 in assay [1] (first compound 0.8 µM). Also, the relative viability in assay [1] (first compound 2.53 µM) is 1.2; in assay [1] (first compound 8 µM) it was 0.859; in the assay with Veliparib + Navitoclax (first compound 0.02 µM) it was 1.02; in the assay with Veliparib + Navitoclax (first compound 0.06325 µM), 0.934; with Veliparib + Navitoclax (first compound 0.2 µM), 1.1; with Veliparib + Navitoclax (first compound 0.6325 µM) it was 0.736. Besides, the relative viability with Veliparib + Navitoclax (first compound 2 µM) was 0.93; with Veliparib + Trametinib (first compound 0.06325 µM) it was 0.474; in the assay with Veliparib + Trametinib (first compound 0.2 µM), 0.52; with Veliparib + Trametinib (first compound 0.6325 µM), 0.513; with Veliparib + Trametinib (first compound 2 µM), 0.548.
